Assay results as given in patent publication EP0761679A1, “N-Butylsulfonate esters of estrogens” (ELI LILLY AND COMPANY, priority 1995, dated 1997).

Tested on: ovariectomized rat
Test: ovariectomized (ovex) rat model, uterine wet weight after four days of oral treatment
Format: in vivo, Sprague Dawley rats
Conditions: 96 h, 0.1 mg/kg P.O. (gavage in 0.5 mL of 1% carboxymethylcellulose suspension), ovariectomized female rats, read-out: Uterine weight as percent control @ 0.1 mg/kg P.O.
Procedure: Seventy-five day old female Sprague Dawley rats (weight range of 225-275 g) were obtained from Charles River Laboratories (Portage, MI). The animals were either bilaterally ovariectomized or exposed to a sham surgical procedure at Charles River Laboratories, and then shipped after one week. They were housed in groups of three and had ad libitum access to food and water. Room temperature was maintained at 22.2° C with 40% relative humidity. The photo-period was 12 hours of light and 12 hours of darkness. One week after arrival (thus, 14 days post-ovariectomy), the rats were treated with vehicle, 17-α-ethinyl estradiol, parent hydroxy estrogens, or a compound of formula I was initiated. After four days of treatment, blood was collected by cardiac puncture, the animals were sacrificed by carbon dioxide asphyxiation and the uteri were removed and wet weight determined. […] All compounds were given by oral dosage (gavage in 0.5 mL of 1% carboxymethylcellulose suspension). For comparison purposes, the data represented are for 0.1 mg/kg for all compounds. The positive control was 0.1 mg/kg of 17-α-ethinyl estradiol, a known, orally available estrogen.

First: C[C@]12CC[C@@H]3c4ccc(OS(C)(=O)=O)cc4CC[C@H]3[C@@H]1CC[C@@H]2OS(C)(=O)=O [3,17-β-di-methanesulfonoyl estradiol]
Second: C[C@]12CC[C@@H]3c4ccc(OS(C)(=O)=O)cc4CC[C@H]3[C@@H]1CC[C@@H]2O [3-methanesulfonoyl-17-β-estradiol]
The response vs control in vivo at 0.1 mg/kg of the first is lower: 0% for the first, 17% for the second.

First: C[C@]12CC[C@@H]3c4ccc(OS(=O)(=O)c5ccccc5)cc4CC[C@H]3[C@@H]1CCC2=O [3-phenylsulfonoyl estrone]
Second: C[C@]12CC[C@@H]3c4ccc(OS(=O)(=O)c5ccccc5)cc4CC[C@H]3[C@@H]1CC[C@@H]2O [3-phenylsulfonoyl-17-β-estradiol]
The response vs control in vivo at 0.1 mg/kg of the first is higher: 10% for the first, 0% for the second.

First: CCCCS(=O)(=O)Oc1ccc2c(c1)CC=C1[C@@H]2CC[C@]2(C)C(=O)CC[C@@H]12 [3-n-butylsulfonoyl equilin]
Second: CCCCS(=O)(=O)Oc1ccc2c(c1)CC[C@@H]1[C@@H]2CC[C@]2(C)C(=O)CC[C@@H]12 [3-n-butylsulfonyl estrone, 3-n-butylsulfonoyl estrone]
The response vs control in vivo at 0.1 mg/kg of the first is higher: 119% for the first, 67% for the second.

First: C[C@]12CC[C@@H]3c4ccc(OS(C)(=O)=O)cc4CC[C@H]3[C@@H]1CCC2=O [3-methanesulfonoyl estrone]
Second: C[C@]12CC[C@@H]3c4ccc(O)cc4CC[C@H]3[C@@H]1CCC2=O [Estrone]
The response vs control in vivo at 0.1 mg/kg of the first is lower: 0% for the first, 35% for the second.

Going from `CCCCS(=O)(=O)Oc1ccc2c(c1)CC[C@@H]1[C@@H]2CC[C@]2(C)[C@@H](OS(=O)(=O)CCCC)CC[C@@H]12` [3,17-β-di-n-butylsulfonoyl estradiol] to `C[C@]12CC[C@@H]3c4ccc(O)cc4CC[C@H]3[C@@H]1CC[C@@H]2O` [17-β-estradiol], the response vs control in vivo at 0.1 mg/kg falls from 112% to 43%.

`C[C@]12CC[C@H]3C(=CCc4cc(O)ccc43)[C@@H]1CCC2=O` [Equilin] showed a response vs control in vivo at 0.1 mg/kg of 47%.
